The values below come from US11578061B2, “Inhibitors of LRRK2 kinase” (Halia Therapeutics, Inc., priority 2021, dated 2023).

A value given as a limit tells only on which side of the number the result lay.

Sequence of recombinant human LRRK2 (catalytic domain only [amino acids 970-2527], GST-tagged) (Q5S007 970-2527): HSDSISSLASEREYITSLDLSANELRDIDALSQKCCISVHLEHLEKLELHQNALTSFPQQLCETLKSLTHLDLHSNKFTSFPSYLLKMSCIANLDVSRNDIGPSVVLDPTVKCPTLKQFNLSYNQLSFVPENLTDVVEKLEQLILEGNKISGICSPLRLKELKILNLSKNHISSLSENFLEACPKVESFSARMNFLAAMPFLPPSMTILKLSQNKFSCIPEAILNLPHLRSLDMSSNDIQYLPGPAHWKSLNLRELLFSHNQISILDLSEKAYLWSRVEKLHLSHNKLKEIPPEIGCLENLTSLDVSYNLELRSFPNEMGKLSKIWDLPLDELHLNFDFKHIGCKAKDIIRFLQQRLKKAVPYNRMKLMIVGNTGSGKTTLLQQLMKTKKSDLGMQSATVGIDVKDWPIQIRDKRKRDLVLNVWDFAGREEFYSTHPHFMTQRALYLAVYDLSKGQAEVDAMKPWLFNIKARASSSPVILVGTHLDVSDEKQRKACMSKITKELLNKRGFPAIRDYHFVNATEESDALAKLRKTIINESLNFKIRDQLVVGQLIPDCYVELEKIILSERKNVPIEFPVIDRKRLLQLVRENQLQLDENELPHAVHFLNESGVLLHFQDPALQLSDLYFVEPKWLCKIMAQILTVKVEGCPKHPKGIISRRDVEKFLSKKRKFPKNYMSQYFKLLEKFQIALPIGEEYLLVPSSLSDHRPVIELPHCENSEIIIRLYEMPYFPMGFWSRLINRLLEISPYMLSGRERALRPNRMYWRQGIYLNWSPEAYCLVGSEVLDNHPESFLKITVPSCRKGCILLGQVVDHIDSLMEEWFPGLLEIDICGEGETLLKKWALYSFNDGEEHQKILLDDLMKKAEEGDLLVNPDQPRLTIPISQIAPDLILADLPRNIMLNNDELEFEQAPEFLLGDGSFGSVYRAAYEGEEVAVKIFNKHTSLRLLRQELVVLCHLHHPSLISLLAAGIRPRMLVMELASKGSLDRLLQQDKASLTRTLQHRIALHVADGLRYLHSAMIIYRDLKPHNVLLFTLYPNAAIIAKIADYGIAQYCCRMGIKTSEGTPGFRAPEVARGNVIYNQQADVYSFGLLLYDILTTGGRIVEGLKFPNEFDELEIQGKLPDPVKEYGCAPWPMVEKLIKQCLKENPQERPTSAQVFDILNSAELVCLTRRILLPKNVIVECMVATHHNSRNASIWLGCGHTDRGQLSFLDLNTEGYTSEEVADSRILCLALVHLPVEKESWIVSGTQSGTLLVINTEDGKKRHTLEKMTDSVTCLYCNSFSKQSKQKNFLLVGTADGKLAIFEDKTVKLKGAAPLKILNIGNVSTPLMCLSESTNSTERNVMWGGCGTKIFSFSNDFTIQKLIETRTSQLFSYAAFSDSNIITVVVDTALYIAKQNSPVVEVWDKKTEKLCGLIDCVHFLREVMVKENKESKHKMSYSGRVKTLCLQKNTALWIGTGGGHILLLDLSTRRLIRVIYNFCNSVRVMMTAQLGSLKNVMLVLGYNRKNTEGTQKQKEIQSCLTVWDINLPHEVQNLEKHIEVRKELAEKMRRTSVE

This test has as its target recombinant human LRRK2 (catalytic domain only [amino acids 970-2527], GST-tagged) (Homo sapiens (Human), UniProt Q5S007). Kind of test: LRRK2 Enzymatic Assay. It counts as biochemical. The conditions noted are these: LRRKtide substrate, [32P]-ATP. Here is the method:
LRRKtide substrate (peptide sequence RLGRDKYKTLRQIRQ, derived from human ezrin [amino acids 561-573], moesin [amino acids 539-553] and radixin [amino acids 558-570], obtained from SignalChem, catalogue #L10-58, reconstituted in 20 mM Tris-HCl at pH 7.5 to a final concentration of 1 mg/mL, assay concentration 20 μM) and recombinant human LRRK2 (catalytic domain only [amino acids 970-2527], GST-tagged, expressed in insect cells, obtained from ThermoFisher Scientific, catalogue #PV4874, 0.35 mg/mL, assay concentration 30 nM) were mixed in assay buffer (20 mM Hepes pH 7.5, 10 mM MgCl2, 1 mM EGTA, 0.02% Brij35, 0.02 mg/ml BSA, 0.1 mM Na3VO4, 2 mM DTT, 1% DMSO). Compounds of interest (in DMSO, serial 3-fold dilution from 10 μM to 0.5 nM) or control (1% DMSO) were dispensed into the kinase reaction mixture by Acoustic technology (Echo550; nanoliter range). After incubation at room temperature for 20 minutes, the kinase reaction was initiated by addition of [^32P]-ATP (Specific activity 10 μCi/μl) and the mixture was incubated at room temperature for 2 hours. The reaction was then stopped by spotting the reaction mixture on strips of phosphocellulose P81 paper. Following washing, the radioactivity of the P81 paper was measured and kinase activity data were expressed as the percent remaining kinase activity in test samples compared to vehicle (dimethyl sulfoxide) reactions. IC50 values and curve fits were obtained using Prism (GraphPad Software).
In general, IC50 refers to the concentration at which inhibition is half-maximal. Take `CN[C@H]1CC[C@H](COc2nc(Nc3ccc(N4CCOCC4)cc3)ncc2OC)CC1` [Example 35, 5-methoxy-4-(((1R,4R)-4-(methylamino)cyclo-hexyl)methoxy)-N-(4-morpholinophenyl) pyrimidin-2-amine]: the half-inhibitory concentration (IC50) is < 50 nM. For the compound `CN[C@H]1CC[C@H](COc2nc(Nc3cc(F)c(C(=O)N4CCOCC4)cc3OC)ncc2OC)CC1` [Example 36], the half-maximal inhibitory concentration (IC50) was < 50 nM.

As for `CN[C@H]1CC[C@H](COc2nc(Nc3cn(C(C)(C)C#N)nc3C)ncc2OC)CC1` [Example 37, 2-(4-((5-methoxy-4-(((1R,4R)-4-(methylamino)cyclo-hexyl)methoxy)py-rimidin-2-yl)amino)-3-methyl-1H-pyrazol-1-yl)-2-methylpropanenitrile], the half-inhibitory concentration (IC50) is < 50 nM. As to `CN[C@H]1CC[C@H](COc2nc(Nc3ccc(N4CCOCC4)cc3)ncc2Cl)CC1` [Example 38, 5-chloro-4-(((1R,4R)-4-(methylamino)cyclo-hexyl)methoxy)-N-(4-morpholinophenyl) pyrimidin-2-amine], the IC50 is < 50 nM. The figure for `CN[C@H]1CC[C@H](COc2nc(Nc3cn(C(C)(C)C#N)nc3C)ncc2Cl)CC1` [Example 39, 2-(4-((5-chloro-4-(((1R,4R)-4-(methylamino)cyclo-hexyl)methoxy)py-rimidin-2-yl)amino)-3-methyl-1H-pyrazol-1-yl)-2-methylpropanenitrile] is < 50 nM. Then `CN[C@H]1CC[C@H](COc2nc(Nc3cn(C4CC(C#N)C4)nc3C)ncc2Cl)CC1` (stereo partly drawn) [Example 40, 3-(4-((5-chloro-4-(((1R,4R)-4-(methylamino)cyclo-hexyl)methoxy)py-rimidin-2-yl)amino)-3-methyl-1H-pyrazol-1-yl)cyclobutane-1-carbonitrile], with < 50 nM. Turning to `CN[C@H]1CC[C@H](COc2nc(Nc3ccc(N4CCOCC4)cc3)ncc2F)CC1` [Example 42, 5-fluoro-4-(((1R,4R)-4-(methylamino)cyclo-hexyl)methoxy)-N-(4-morpholinophenyl) pyrimidin-2-amine], the 50% inhibitory concentration (IC50) is < 50 nM.

Turning to `CN[C@H]1CC[C@H](COc2nc(Nc3cn(C(C)(C)C#N)nc3C)ncc2F)CC1` [Example 43, 2-(4-((5-fluoro-4-(((1R,4R)-4-(methylamino)cyclo-hexyl)methoxy)py-rimidin-2-yl)amino)-3-methyl-1H-pyrazol-1-yl)-2-methylpropanenitrile], the IC50 is < 50 nM.

As for `CN[C@H]1CC[C@H](COc2nc(Nc3cn(C(C)(C)C#N)nc3C)ncc2C)CC1` [Example 44, 2-methyl-2-(3-methyl-4-((5-methyl-4-(((1R,4R)-4-(methylamino)cyclo-hexyl)methoxy)py-rimidin-2-yl)amino)-1H-pyrazol-1-yl)propanenitrile], the IC50 was < 50 nM. Then `CN[C@H]1CC[C@H](COc2nc(Nc3ccc(N4CCOCC4)cc3)ncc2C2CC2)CC1` [Example 45, 5-cyclopropyl-4-(((1R,4R)-4-(methylamino)cyclo-hexyl)methoxy)-N-(4-morpholinophenyl) pyrimidin-2-amine], with 50 to 200 nM; and `CNC1CCCC(COc2ccnc(Nc3ccc(N4CCOCC4)cc3)n2)C1` (centres unmarked) [Example 47, 4-((3-(methylamino)cyclo-hexyl)methoxy)-N-(4-morpholinophenyl) pyrimidin-2-amine], with 200 to 400 nM.

For the compound `CNC[C@H]1CC[C@H](COc2ccnc(Nc3ccc(N4CCOCC4)cc3)n2)CC1` [Example 48, 4-(((1R,4R)-4-((methylamino)methyl)cyclohexyl)methoxy)-N-(4-morpholinophenyl)py-rimidin-2-amine], the IC50 was 50 to 200 nM.

Regarding `CNC[C@H]1CC[C@H](COc2nc(Nc3ccc(N4CCOCC4)cc3)ncc2Cl)CC1` [Example 49, 5-chloro-4-(((1R,4R)-4-((methylamino)methyl)cyclohexyl)methoxy)-N-(4-morpholinophenyl)py-rimidin-2-amine], the IC50 was < 50 nM. The figure for `CNC[C@H]1CC[C@H](COc2nc(Nc3cnn(C4CC(C#N)C4)c3C)ncc2Cl)CC1` (stereo partly drawn) [Example 50, 3-(4-((5-chloro-4-(((1R,4R)-4-((methylamino)methyl)cyclohexyl)methoxy)pyrimidin-2-yl)amino)-5-methyl-1H-pyrazol-1-yl)cyclobutane-1-carbonitrile] is < 50 nM. The figure for `CNC[C@H]1CC[C@H](COc2nc(Nc3cn(C4CC(C#N)C4)nc3C)ncc2Cl)CC1` (stereo partly drawn) [Example 51, 3-(4-((5-chloro-4-(((1R,4R)-4-((methylamino)methyl)cyclohexyl)methoxy)pyrimidin-2-yl)amino)-3-methyl-1H-pyrazol-1-yl)cyclobutane-1-carbonitrile] is < 50 nM; for `CN[C@H]1CC[C@@H](COc2nc(Nc3cnn(C4CC(C#N)C4)c3C)ncc2Cl)C1` (stereo partly drawn) [Example 52, 3-(4-((5-chloro-4-(((1R,3S)-3-(methylamino)cyclo-pentyl)methoxy)py-rimidin-2-yl)amino)-5-methyl-1H-pyrazol-1-yl)cyclobutane-1-carbonitrile] it is < 50 nM; for `CN[C@H]1CC[C@@H](COc2nc(Nc3cn(C4CC(C#N)C4)nc3C)ncc2Cl)C1` (stereo partly drawn) [Example 53, 3-(4-((5-chloro-4-(((1R,3S)-3-(methylamino)cyclo-pentyl)methoxy)py-rimidin-2-yl)amino)-3-methyl-1H-pyrazol-1-yl)cyclobutane-1-carbonitrile] it is < 50 nM.

In the case of `CNC1(COc2nc(Nc3ccc(N4CCOCC4)cc3)ncc2Cl)CC1` [Example 54, 5-chloro-4-((1-(methylamino)cyclo-propyl)methoxy)-N-(4-morpholinophenyl)py-rimidin-2-amine], the IC50 lay in the range of 200 to 400 nM. The figure for `COc1cnc(Nc2ccc(N3CCOCC3)cc2)nc1OC[C@H]1CC[C@H](N(C)C)CC1` [Example 55, 4-(((1R,4R)-4-(dimethylamino)cyclo-hexyl)methoxy)-5-methoxy-N-(4-morpholinophenyl)py-rimidin-2-amine] is < 50 nM. Then `CN1CCC(COc2nc(Nc3ccc(N4CCOCC4)cc3)ncc2Cl)CC1` [Example 56, 5-chloro-4-((1-methylpiperidin-4-yl)methoxy)-N-(4-morpholinophenyl)py-rimidin-2-amine], with < 50 nM. `Cc1nn(C(C)(C)C#N)cc1Nc1ncc(Cl)c(OCC2CCN(C)CC2)n1` [Example 57, 2-(4-((5-chloro-4-((1-methylpiperidin-4-yl)methoxy)pyrimidin-2-yl)amino)-3-methyl-1H-pyrazol-1-yl)-2-methylpropanenitrile]: the IC50 was in the range of 50 to 200 nM. For `Cc1c(Nc2ncc(Cl)c(OCC3CCN(C)CC3)n2)cnn1C1CC(C#N)C1` (centres unmarked) [Example 58, 3-(4-((5-chloro-4-((1-methylpiperidin-4-yl)methoxy)pyrimidin-2-yl)amino)-5-methyl-1H-pyrazol-1-yl)cyclobutane-1-carbonitrile], the IC50 is < 50 nM. The figure for `Cc1nn(C2CC(C#N)C2)cc1Nc1ncc(Cl)c(OCC2CCN(C)CC2)n1` (centres unmarked) [Example 59, 3-(4-((5-chloro-4-((1-methylpiperidin-4-yl)methoxy)pyrimidin-2-yl)amino)-3-methyl-1H-pyrazol-1-yl)cyclobutane-1-carbonitrile] is 200 to 400 nM; for `Cc1nn(C(C)(C)C#N)cc1Nc1nccc(OCC2(F)CCN(C)CC2)n1` [Example 60, 2-(4-((4-((4-fluoro-1-methylpiperidin-4-yl)methoxy)pyrimidin-2-yl)amino)-3-methyl-1H-pyrazol-1-yl)-2-methylpropanenitrile] it is > 400 nM. The figure for `Cc1nn(C(C)(C)C#N)cc1Nc1ncc(Cl)c(OCC2(F)CCN(C)CC2)n1` [Example 61, 2-(4-((5-chloro-4-((4-fluoro-1-methylpiperidin-4-yl)methoxy)pyrimidin-2-yl)amino)-3-methyl-1H-pyrazol-1-yl)-2-methylpropanenitrile] is < 50 nM. Then `Cc1nn(C2CC(C#N)C2)cc1Nc1ncc(Cl)c(OCC2(F)CCN(C)CC2)n1` (centres unmarked) [Example 62, 3-(4-((5-chloro-4-((4-fluoro-1-methylpiperidin-4-yl)methoxy)pyrimidin-2-yl)amino)-3-methyl-1H-pyrazol-1-yl)cyclobutane-1-carbonitrile], with 200 to 400 nM; and `Cc1nn(C2CC(C#N)C2)cc1Nc1ncc(Cl)c(OCC2CCN(C)CC2F)n1` (centres unmarked) [Example 63, 3-(4-((5-chloro-4-((3-fluoro-1-methylpiperidin-4-yl)methoxy)pyrimidin-2-yl)amino)-3-methyl-1H-pyrazol-1-yl)cyclobutane-1-carbonitrile], with > 400 nM; and `CN1CCC(F)(COc2nc(Nc3ccc(N4CCOCC4)cc3)ncc2F)CC1` [Example 64, 5-fluoro-4-((4-fluoro-1-methylpiperidin-4-yl)methoxy)-N-(4-morpholinophenyl)py-rimidin-2-amine], with > 400 nM.

Turning to `C[C@@H]1CN(c2ccc(Nc3ncc(F)c(OCC4(F)CCN(C)CC4)n3)cc2)C[C@H](C)O1` [Example 65, N-(4-((2R,6S)-2,6-dimethylmorpholino)phenyl)-5-fluoro-4-((4-fluoro-1-methylpiperidin-4-yl)methoxy)pyrimidin-2-amine], the concentration for half-maximal inhibition (IC50) fell in the range of 50 to 200 nM.
